Reference: patent US11572369B2, “Bicyclic pyridine compositions and methods of using the same for cancer therapy” (UNIVERSITY OF SOUTH CAROLINA, priority 2019, dated 2023)

Experiments:
Test in all cases: KINOMEscan
Assay type in all cases: binding
Conditions in all cases: 2000 nM
DDR1 = biological target: T1, DDR1 (Homo sapiens, UniProt Q08345)
T1 construct: DNA label (qPCR read-out); purchased KINOMEscan (DiscoveRx) panel

CLK4 = biological target: T2, CLK4 (Homo sapiens, UniProt Q9HAZ1)
T2 construct: DNA label (for qPCR read-out); purchased DiscoveRx (KINOMEscan scanMAX service)
T2 sequence (Q9HAZ1 whole entry): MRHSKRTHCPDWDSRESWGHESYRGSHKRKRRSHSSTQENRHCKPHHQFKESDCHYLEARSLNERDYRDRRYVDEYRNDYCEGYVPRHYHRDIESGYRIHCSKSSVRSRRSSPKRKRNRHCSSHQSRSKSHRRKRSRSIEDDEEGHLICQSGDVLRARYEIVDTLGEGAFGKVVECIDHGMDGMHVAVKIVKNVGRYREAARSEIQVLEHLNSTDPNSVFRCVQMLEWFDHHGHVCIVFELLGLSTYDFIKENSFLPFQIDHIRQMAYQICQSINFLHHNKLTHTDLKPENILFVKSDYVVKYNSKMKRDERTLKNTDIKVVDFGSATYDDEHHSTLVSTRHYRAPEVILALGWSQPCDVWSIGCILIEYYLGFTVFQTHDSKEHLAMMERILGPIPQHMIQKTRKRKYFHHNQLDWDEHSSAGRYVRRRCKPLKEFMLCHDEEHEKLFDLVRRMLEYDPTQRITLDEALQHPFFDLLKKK

PCTK2 = biological target: T3, PCTK2 (Homo sapiens, UniProt Q00537)
T3 construct: purchased DiscoverX (KINOMEscan service)

MEK5 = biological target: T4, MEK5 (Homo sapiens, UniProt Q13163)
T4 construct: purchased DiscoveRx (KINOMEscan scanMAX panel, service)
T4 sequence (Q13163 whole entry): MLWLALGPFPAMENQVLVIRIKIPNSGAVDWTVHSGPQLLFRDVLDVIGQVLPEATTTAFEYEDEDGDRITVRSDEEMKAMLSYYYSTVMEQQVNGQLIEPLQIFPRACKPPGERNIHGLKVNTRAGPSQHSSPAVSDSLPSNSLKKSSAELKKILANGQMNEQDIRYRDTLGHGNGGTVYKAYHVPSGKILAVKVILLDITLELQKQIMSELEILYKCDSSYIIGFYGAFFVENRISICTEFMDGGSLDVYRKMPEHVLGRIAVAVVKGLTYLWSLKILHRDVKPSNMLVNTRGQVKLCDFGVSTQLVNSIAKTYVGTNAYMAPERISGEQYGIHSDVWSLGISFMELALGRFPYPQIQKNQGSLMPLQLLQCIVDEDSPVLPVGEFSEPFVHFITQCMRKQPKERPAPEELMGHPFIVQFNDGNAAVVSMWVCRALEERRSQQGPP

NEK7 = biological target: T5, NEK7 (Homo sapiens, UniProt Q8TDX7)
T5 construct: DNA label (qPCR read-out); purchased KINOMEscan (ScanMAX panel service)

PAK1 = biological target: T6, PAK1 (Homo sapiens, UniProt Q13153)
T6 construct: purchased DiscoverX (KINOMEscan service)

MET(M1250T) = biological target: T7, MET(M1250T) (Homo sapiens, UniProt P08581, M1250T)
T7 construct: purchased DiscoveRx (KINOMEscan scanMAX panel, service)

PRKCD = biological target: T8, PRKCD (Homo sapiens, UniProt Q05655)
T8 construct: purchased DiscoveRx (KINOMEscan scanMAX panel)

[1] = biological target: T9, (Homo sapiens, UniProt P20794)
T9 construct: DNA label (qPCR read-out); purchased DiscoverX (KINOMEscan service)

PRP4 = biological target: T10, PRP4 (Homo sapiens, UniProt Q13523)
T10 construct: purchased DiscoveRx (KINOMEscan scanMAX panel)
From the text: (§1) Nat. Biotechnol. 23, 329-336 (2005).
(§2) Percent Control (% Ctrl).

FLT3(ITD, D835V) = test system: FLT3(ITD, D835V)
From the text: as §1, §2

PFPK5(P.falciparum) = biological target: T11, PFPK5(P.falciparum) (Plasmodium falciparum, UniProt P61075)
T11 construct: DNA label (for qPCR read-out); purchased DiscoveRx (KINOMEscan scanMAX service)
From the text: as §1, §2

FLT3 (ITD) = test system: FLT3 (ITD)
From the text: as §1, §2

PFCDPK1(P.falciparum) = biological target: T12, PFCDPK1(P.falciparum) (Plasmodium falciparum, UniProt P62344)
T12 construct: DNA label (for qPCR read-out); purchased DiscoveRx (KINOMEscan scanMAX service)
From the text: as §1, §2

CDC2L5 = biological target: T13, CDC2L5 (Homo sapiens, UniProt Q14004)
T13 construct: purchased DiscoverX (KINOMEscan service)
T13 sequence (Q14004 whole entry): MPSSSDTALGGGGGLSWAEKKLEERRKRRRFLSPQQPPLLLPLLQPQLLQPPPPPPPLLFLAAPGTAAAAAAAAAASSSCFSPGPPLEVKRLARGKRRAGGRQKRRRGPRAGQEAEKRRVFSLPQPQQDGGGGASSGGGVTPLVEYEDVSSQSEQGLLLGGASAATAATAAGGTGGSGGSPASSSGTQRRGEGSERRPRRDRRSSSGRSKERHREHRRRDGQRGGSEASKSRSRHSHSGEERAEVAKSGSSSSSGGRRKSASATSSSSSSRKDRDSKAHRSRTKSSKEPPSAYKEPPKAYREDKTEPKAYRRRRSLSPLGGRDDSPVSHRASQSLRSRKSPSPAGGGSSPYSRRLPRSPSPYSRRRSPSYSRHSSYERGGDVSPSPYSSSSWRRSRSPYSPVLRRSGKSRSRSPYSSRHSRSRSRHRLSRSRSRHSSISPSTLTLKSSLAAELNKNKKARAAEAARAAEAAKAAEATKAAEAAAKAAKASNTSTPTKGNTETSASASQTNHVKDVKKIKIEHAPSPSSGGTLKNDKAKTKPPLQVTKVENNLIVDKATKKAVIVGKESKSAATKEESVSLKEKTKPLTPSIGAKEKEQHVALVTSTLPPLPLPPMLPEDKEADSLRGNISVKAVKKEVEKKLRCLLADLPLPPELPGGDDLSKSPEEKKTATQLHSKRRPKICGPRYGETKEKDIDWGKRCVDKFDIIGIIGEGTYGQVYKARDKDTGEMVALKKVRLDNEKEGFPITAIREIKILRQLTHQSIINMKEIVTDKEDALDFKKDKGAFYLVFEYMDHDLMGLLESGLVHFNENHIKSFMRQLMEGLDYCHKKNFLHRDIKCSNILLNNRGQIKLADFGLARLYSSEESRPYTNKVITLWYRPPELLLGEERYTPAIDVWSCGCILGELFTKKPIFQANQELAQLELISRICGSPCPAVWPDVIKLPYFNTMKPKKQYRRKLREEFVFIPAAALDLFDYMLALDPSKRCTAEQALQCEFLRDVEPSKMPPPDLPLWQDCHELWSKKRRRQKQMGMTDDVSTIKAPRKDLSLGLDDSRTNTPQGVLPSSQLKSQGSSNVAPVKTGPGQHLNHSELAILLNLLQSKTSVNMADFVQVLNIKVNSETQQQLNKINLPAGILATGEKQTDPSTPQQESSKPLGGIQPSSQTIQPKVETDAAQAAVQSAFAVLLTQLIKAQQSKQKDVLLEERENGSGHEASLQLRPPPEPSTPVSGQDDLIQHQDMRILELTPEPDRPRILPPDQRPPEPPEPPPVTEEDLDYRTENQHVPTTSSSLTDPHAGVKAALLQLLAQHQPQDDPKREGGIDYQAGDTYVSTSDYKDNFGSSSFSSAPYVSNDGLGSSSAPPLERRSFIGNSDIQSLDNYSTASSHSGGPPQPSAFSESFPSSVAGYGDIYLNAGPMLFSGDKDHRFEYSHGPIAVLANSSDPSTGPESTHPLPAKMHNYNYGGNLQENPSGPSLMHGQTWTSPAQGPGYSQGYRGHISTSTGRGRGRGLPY
From the text: as §1, §2

FLT3(ITD, F691L) = test system: FLT3(ITD, F691L)
From the text: as §1, §2

MAP4K3 = MAP4K3 (Homo sapiens, UniProt Q8IVH8)
TNNI3K = biological target: T14, TNNI3K (Homo sapiens, UniProt Q59H18)
T14 construct: DNA label (qPCR read-out); purchased KINOMEscan (DiscoveRx) ScanMAX panel

CIT = biological target: T15, CIT (Homo sapiens, UniProt O14578)
T15 construct: DNA label (for qPCR read-out); purchased DiscoveRx (KINOMEscan scanMAX service)

ERK4 = biological target: T16, ERK4 (Homo sapiens, UniProt P31152)
T16 construct: DNA label (qPCR read-out); purchased DiscoveRx (KINOMEscan ScanMAX panel)

TXK = biological target: T17, TXK (Homo sapiens, UniProt P42681)
T17 construct: DNA label (for qPCR read-out); purchased DiscoveRx (KINOMEscan scanMAX panel)

CDC2L1 = biological target: T18, CDC2L1 (Homo sapiens, UniProt P21127)
T18 construct: DNA label (qPCR read-out); purchased KINOMEscan (ScanMAX panel service)

EGFR(G719S) = biological target: T19, EGFR(G719S) (Homo sapiens, UniProt P00533, G719S)
T19 construct: purchased DiscoveRx (KINOMEscan scanMAX panel)

NIK = biological target: T20, NIK (Homo sapiens, UniProt Q99558)
T20 construct: DNA label (qPCR read-out); purchased KINOMEscan (ScanMAX panel service)

MEK1 = biological target: T21, MEK1 (Homo sapiens, UniProt Q02750)
T21 construct: purchased DiscoveRx (KINOMEscan scanMAX panel, service)

IRAK4 = biological target: T22, IRAK4 (Homo sapiens, UniProt Q9NWZ3)
T22 construct: DNA label (qPCR read-out); purchased KINOMEscan (DiscoveRx) ScanMAX panel

KIT = biological target: T23, KIT (Homo sapiens, UniProt P10721)
T23 construct: DNA label (for qPCR read-out); purchased DiscoveRx (KINOMEscan scanMAX panel)
T23 sequence (P10721 26-976): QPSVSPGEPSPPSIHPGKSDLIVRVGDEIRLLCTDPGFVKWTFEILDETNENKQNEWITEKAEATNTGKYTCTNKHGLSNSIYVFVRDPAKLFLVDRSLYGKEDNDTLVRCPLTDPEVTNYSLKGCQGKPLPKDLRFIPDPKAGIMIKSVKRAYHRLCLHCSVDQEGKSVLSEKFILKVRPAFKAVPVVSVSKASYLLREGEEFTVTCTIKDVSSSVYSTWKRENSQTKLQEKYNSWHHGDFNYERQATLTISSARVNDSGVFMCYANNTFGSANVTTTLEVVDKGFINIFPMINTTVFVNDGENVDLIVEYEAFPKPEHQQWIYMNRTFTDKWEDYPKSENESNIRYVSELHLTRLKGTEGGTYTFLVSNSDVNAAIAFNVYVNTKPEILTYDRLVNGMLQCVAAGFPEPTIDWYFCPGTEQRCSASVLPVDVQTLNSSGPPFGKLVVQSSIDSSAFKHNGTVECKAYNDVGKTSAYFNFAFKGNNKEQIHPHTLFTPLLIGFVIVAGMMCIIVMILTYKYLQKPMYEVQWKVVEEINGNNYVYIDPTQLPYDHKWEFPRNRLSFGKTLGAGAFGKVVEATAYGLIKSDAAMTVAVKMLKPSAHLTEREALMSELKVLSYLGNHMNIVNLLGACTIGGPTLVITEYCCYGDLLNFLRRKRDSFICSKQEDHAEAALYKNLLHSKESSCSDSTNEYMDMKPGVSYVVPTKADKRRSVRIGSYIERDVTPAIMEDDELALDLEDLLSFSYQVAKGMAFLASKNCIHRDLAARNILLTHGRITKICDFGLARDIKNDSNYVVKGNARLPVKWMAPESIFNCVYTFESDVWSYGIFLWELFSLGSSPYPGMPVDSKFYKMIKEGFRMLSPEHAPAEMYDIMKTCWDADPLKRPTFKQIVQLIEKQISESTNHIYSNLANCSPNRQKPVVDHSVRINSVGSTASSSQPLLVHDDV

MRCKB = biological target: T24, MRCKB (Homo sapiens, UniProt Q9Y5S2)
T24 construct: DNA label (qPCR read-out); purchased KINOMEscan scanMAX panel (DiscoveRx)

AMPK-alpha1 = biological target: T25, AMPK-alpha1 (Homo sapiens, UniProt Q13131)
T25 construct: DNA label (qPCR read-out); purchased KINOMEscan scanMAX panel (DiscoveRx)
T25 sequence (Q13131 whole entry): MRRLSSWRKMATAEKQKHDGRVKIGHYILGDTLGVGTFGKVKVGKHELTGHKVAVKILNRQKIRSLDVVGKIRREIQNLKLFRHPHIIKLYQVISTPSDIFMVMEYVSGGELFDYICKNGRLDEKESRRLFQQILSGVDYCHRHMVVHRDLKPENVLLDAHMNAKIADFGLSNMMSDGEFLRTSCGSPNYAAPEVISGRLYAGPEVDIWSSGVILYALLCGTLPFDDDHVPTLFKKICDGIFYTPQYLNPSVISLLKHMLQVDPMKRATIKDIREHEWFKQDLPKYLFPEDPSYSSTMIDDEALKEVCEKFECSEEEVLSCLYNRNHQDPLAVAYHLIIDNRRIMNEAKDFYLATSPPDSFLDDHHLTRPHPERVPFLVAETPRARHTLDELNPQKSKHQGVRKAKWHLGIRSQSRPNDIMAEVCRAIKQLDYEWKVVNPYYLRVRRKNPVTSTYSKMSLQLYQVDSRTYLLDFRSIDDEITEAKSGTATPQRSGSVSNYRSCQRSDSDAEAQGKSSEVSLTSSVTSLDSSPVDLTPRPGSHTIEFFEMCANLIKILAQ

TIE2 = biological target: T26, TIE2 (Homo sapiens, UniProt Q02763)
T26 construct: DNA label (qPCR read-out); purchased KINOMEscan (DiscoveRx) ScanMAX panel

PCTK3 = biological target: T27, PCTK3 (Homo sapiens, UniProt Q07002)
T27 construct: DNA label (for qPCR read-out); purchased DiscoveRx (KINOMEscan scanMAX service)

STK35 = biological target: T28, STK35 (Homo sapiens, UniProt Q8TDR2)
T28 construct: DNA label (for qPCR read-out); purchased DiscoveRx (KINOMEscan scanMAX panel, contract assay)

NEK1 = biological target: T29, NEK1 (Homo sapiens, UniProt Q96PY6)
T29 construct: DNA label (for qPCR read-out); purchased KINOMEscan scanMAX panel (DiscoveRx)

[2] = biological target: T30, RSK2(Kin.Dom.1-N-terminal) (Homo sapiens, UniProt P51812)
T30 construct: RSK2(Kin.Dom.1); purchased DiscoveRx (KINOMEscan scanMAX panel)
T30 sequence (P51812 68-327 limits assumed): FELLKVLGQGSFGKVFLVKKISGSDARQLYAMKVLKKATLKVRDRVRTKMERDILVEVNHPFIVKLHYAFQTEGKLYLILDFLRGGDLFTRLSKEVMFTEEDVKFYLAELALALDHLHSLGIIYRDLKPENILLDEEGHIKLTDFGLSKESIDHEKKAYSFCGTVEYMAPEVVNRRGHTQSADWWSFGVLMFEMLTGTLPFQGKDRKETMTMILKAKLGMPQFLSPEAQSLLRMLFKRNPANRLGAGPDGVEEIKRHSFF

[3] = biological target: ABL1(F317I)-phosphorylated (Homo sapiens, UniProt P00519, F317I)
GRK3 = biological target: T31, GRK3 (Homo sapiens, UniProt P35626)
T31 construct: DNA label (for qPCR read-out); purchased DiscoveRx (KINOMEscan scanMAX panel, contract assay)
T31 sequence (P35626 whole entry): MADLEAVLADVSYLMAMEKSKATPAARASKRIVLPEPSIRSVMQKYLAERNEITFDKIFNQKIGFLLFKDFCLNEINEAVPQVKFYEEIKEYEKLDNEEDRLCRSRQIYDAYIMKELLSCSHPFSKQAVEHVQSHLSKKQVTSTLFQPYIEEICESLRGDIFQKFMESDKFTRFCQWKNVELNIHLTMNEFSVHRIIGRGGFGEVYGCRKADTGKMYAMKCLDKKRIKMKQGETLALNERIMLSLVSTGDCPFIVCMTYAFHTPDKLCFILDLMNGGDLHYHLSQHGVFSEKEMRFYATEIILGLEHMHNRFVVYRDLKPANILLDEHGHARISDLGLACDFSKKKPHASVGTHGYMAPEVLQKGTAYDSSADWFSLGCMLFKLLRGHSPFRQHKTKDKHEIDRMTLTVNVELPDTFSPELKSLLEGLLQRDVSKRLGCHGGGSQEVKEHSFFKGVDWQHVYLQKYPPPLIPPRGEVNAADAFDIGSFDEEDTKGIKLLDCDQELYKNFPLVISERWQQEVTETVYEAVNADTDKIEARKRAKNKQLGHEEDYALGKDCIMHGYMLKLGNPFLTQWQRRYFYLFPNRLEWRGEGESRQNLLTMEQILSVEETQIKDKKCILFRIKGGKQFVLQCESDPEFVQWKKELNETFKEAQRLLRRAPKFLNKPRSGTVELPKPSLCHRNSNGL

| SMILES | % Ctrl (DDR1) [% Ctrl] | % Ctrl (CLK4) [% Ctrl] | % Ctrl (PCTK2) [% Ctrl] | % Ctrl (MEK5) [% Ctrl] | % Ctrl (NEK7) [% Ctrl] | % Ctrl (PAK1) [% Ctrl] | % Ctrl (MET(M1250T)) [% Ctrl] | % Ctrl (PRKCD) [% Ctrl] | % Ctrl [1] [% Ctrl] | % Ctrl (PRP4) [% Ctrl] | % Ctrl (FLT3(ITD, D835V)) [% Ctrl] | % Ctrl (PFPK5(P.falciparum)) [% Ctrl] | % Ctrl (FLT3 (ITD)) [% Ctrl] | % Ctrl (PFCDPK1(P.falciparum)) [% Ctrl] | % Ctrl (CDC2L5) [% Ctrl] | % Ctrl (FLT3(ITD, F691L)) [% Ctrl] | % Ctrl (MAP4K3) [% Ctrl] | % Ctrl (TNNI3K) [% Ctrl] | % Ctrl (CIT) [% Ctrl] | % Ctrl (ERK4) [% Ctrl] | also measured |
| --- | --- | --- | --- | --- | --- | --- | --- | --- | --- | --- | --- | --- | --- | --- | --- | --- | --- | --- | --- | --- | --- |
| [2H]C([2H])([2H])N(C(=O)c1ccc(N2CCCN(c3ccnc4sc(C(N)=O)c(N)c34)CC2)cc1)C([2H])([2H])[2H] [15u_D6, 3-amino-4-(4-(4-(bis(methyl-d3)carbamoyl)phenyl)-1,4-diazepan-1-yl)thieno[2,3-b]pyridine-2-carboxamide] | 90 | 66 | 100 | 65 | 86 | 92 | 96 | 92 | 91 | 88 | 34 | 67 | 72 | 61 | 80 | 75 | 95 | 100 | 65 | 100 | % Ctrl (TXK): 100 % Ctrl; % Ctrl (CDC2L1): 100 % Ctrl; % Ctrl (EGFR(G719S)): 100 % Ctrl; % Ctrl (NIK): 97 % Ctrl; % Ctrl (MEK1): 83 % Ctrl; % Ctrl (IRAK4): 78 % Ctrl; % Ctrl (KIT): 95 % Ctrl; % Ctrl (MRCKB): 100 % Ctrl; % Ctrl (AMPK-alpha1): 100 % Ctrl; % Ctrl (TIE2): 100 % Ctrl; % Ctrl (PCTK3): 100 % Ctrl; % Ctrl (STK35): 93 % Ctrl; % Ctrl (NEK1): 96 % Ctrl; % Ctrl [2]: 64 % Ctrl; % Ctrl [3]: 84 % Ctrl; % Ctrl (GRK3): 87 % Ctrl |
| CN(C)C(=O)c1ccc(N2CCCN(c3ccnc4sc(C(N)=O)c(N)c34)CC2)cc1 [15u, 3-amino-4-(4-(4-(dimethylcarbamoyl)phenyl)-1,4-diazepan-1-yl)thieno[2,3-b]pyridine-2-carboxamide] | 82 | 59 | 62 | 86 | 100 | 96 | 100 | 100 | 100 | 100 | 41 | 68 | 82 | 94 | 71 | 95 | 91 | 100 | 51 | 72 | % Ctrl (TXK): 93 % Ctrl; % Ctrl (CDC2L1): 63 % Ctrl; % Ctrl (EGFR(G719S)): 100 % Ctrl; % Ctrl (NIK): 100 % Ctrl; % Ctrl (MEK1): 93 % Ctrl; % Ctrl (IRAK4): 89 % Ctrl; % Ctrl (KIT): 95 % Ctrl; % Ctrl (MRCKB): 96 % Ctrl; % Ctrl (AMPK-alpha1): 100 % Ctrl; % Ctrl (TIE2): 72 % Ctrl; % Ctrl (PCTK3): 100 % Ctrl; % Ctrl (STK35): 87 % Ctrl; % Ctrl (NEK1): 80 % Ctrl; % Ctrl [2]: 90 % Ctrl; % Ctrl [3]: 88 % Ctrl; % Ctrl (GRK3): 99 % Ctrl |
